Reference: US9199949B2, “Selective glycosidase inhibitors and uses thereof” (Alectos Therapeutics Inc., priority 2011, dated 2015)

Experiments:
[1] = Assay for determination of apparent permeability (Papp) in LLC-PK1 cells; assay type: in vitro ADME; settings: pig, t=3 h, average of A to B and B to A
Experimental: Bi-directional transport was evaluated in LLC-PK1 cells in order to determine apparent permeability (Papp). LLC-PK1 cells can form a tight monolayer and therefore can be used to assess vectorial transport of compounds from basolateral to apical (B→A) and from apical to basolateral (A→B).
To determine Papp, LLC-PK1 cells were cultured in 96-well transwell culture plates (Millipore). Solutions containing the test compounds (1 μM) were prepared in Hank's Balanced Salt Solution with 10 mM HEPES. Substrate solution (150 μL) was added to either the apical (A) or the basolateral (B) compartment of the culture plate, and buffer (150 μL) was added to the compartment opposite to that containing the compound. At t=3 h, 50 μL samples were removed from both sides of monolayers dosed with test compound and placed in 96 well plates, scintillant (200 μL) or internal standard (100 μL labetolol 1 μM) was added to the samples and concentration was determined by liquid scintillation counting in a MicroBeta Wallac Trilux scintillation counter (Perkin Elmer Life Sciences, Boston, Mass.) or by LCMS/MS (Applied Biosystems SCIEX API 5000 triple quadruple mass spectrometer). [^3H]Verapamil (1 μM) was used as the positive control. The experiment was performed in triplicate.
[formula] Where: Volume of Receptor Chamber was 0.15 mL; Area of membrane was 0.11 cm^2; the Initial Concentration is the sum of the concentration measured in the donor plus concentration measured in receiver compartments at t=3 h; Δ in Concentration is concentration in the receiver compartment at 3 h; and Δ in Time is the incubation time (3×60×60=10800 s). Papp was expressed as 10^−6 cm/s.

O-GlcNAcase = O-GlcNAcase (Rattus norvegicus (Rat), UniProt Q8VIJ5); assay: Cell-based ELISA for cellular activity of O-GlcNAcase inhibitors (O-GlcNAcylated protein, RL-2 antibody); settings: rat PC-12 cells, 24 h treatment, O-GlcNAcylated protein by RL-2 ELISA
Chain of O-GlcNAcase (Q8VIJ5 whole entry): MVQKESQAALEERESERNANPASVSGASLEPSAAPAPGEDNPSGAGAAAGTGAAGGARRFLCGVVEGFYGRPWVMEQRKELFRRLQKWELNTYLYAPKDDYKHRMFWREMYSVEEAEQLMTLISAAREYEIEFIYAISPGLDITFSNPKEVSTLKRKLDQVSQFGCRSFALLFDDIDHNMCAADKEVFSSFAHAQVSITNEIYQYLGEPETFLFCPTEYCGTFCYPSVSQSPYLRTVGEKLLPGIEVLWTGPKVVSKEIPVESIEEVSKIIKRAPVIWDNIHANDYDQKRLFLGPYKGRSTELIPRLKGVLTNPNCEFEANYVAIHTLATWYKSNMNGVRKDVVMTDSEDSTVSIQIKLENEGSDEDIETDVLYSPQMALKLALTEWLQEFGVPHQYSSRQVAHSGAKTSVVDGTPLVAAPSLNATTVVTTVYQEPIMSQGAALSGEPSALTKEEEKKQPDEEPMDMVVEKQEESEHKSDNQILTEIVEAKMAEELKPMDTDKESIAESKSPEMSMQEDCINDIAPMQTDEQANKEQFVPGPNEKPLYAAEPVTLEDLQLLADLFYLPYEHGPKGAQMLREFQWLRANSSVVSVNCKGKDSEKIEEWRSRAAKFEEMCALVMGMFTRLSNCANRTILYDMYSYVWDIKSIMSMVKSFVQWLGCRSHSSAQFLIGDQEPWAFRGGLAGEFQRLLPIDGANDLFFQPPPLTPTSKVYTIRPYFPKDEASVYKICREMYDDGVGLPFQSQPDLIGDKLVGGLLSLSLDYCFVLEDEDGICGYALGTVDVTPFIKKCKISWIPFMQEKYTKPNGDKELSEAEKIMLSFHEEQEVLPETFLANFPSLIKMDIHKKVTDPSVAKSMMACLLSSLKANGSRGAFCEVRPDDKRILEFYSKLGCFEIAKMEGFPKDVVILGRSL
Experimental: Inhibition of O-GlcNAcase, which removes O-GlcNAc from cellular proteins, results in an increase in the level of O-GlcNAcylated protein in cells. An increase in O-GlcNAcylated protein can be measured by an antibody, such as RL-2, that binds to O-GlcNAcylated protein. The amount of O-GlcNAcylated protein:RL2 antibody interaction can be measured by enzyme linked immunosorbant assay (ELISA) procedures.
Compounds to be tested were dissolved in DMSO, either 2 or 10 mM stock solution, and then diluted with DMSO and water in a two-step process using a Tecan workstation. […] To prepare a cell lysate, the media from compound treated cells was removed, the cells were washed once with phosphate buffered saline (PBS) and then lysed for 5 minutes at room temperature in 50 μL of Phosphosafe reagent (Novagen Inc, Madison, Wis.) with protease inhibitors and PMSF. The cell lysate was collected and transferred to a new plate, which was then either coated to assay plates directly or frozen −80° C. until used in the ELISA procedure. If desired, the total protein concentration of samples was determined using 20 μL of the sample using the BCA method.
The ELISA portion of the assay was performed in a black Maxisorp 96-well plate that was coated overnight at 4° C. with 100 μL/well of the cell lysate (1:10 dilution of the lysate with PBS containing protease inhibitors, phosphatase inhibitors, and PMSF). The following day the wells were washed 3 times with 300 μL/well of Wash buffer (Tris-buffered saline with 0.1% Tween 20).
The amount of O-GlcNAcylated protein, as detected by the ELISA assay, was plotted for each concentration of test compound using standard curve fitting algorithms for sigmoidal dose response curves. The values for a four parameter logistic curve fit of the data were determined, with the inflection point of the curve being the potency value for the test compound.

human O-GlcNAcase = human O-GlcNAcase (Homo sapiens (Human), UniProt O60502); assay: Assay for determination of KI values for inhibition of O-GlcNAcase activity (fluorescence-based hOGA); assay type: biochemical; settings: purified human O-GlcNAcase, 4-Methylumbelliferyl N-acetyl-β-D-glucosaminide substrate, pH 7.0, Cheng-Prusoff
Chain of human O-GlcNAcase (O60502 whole entry): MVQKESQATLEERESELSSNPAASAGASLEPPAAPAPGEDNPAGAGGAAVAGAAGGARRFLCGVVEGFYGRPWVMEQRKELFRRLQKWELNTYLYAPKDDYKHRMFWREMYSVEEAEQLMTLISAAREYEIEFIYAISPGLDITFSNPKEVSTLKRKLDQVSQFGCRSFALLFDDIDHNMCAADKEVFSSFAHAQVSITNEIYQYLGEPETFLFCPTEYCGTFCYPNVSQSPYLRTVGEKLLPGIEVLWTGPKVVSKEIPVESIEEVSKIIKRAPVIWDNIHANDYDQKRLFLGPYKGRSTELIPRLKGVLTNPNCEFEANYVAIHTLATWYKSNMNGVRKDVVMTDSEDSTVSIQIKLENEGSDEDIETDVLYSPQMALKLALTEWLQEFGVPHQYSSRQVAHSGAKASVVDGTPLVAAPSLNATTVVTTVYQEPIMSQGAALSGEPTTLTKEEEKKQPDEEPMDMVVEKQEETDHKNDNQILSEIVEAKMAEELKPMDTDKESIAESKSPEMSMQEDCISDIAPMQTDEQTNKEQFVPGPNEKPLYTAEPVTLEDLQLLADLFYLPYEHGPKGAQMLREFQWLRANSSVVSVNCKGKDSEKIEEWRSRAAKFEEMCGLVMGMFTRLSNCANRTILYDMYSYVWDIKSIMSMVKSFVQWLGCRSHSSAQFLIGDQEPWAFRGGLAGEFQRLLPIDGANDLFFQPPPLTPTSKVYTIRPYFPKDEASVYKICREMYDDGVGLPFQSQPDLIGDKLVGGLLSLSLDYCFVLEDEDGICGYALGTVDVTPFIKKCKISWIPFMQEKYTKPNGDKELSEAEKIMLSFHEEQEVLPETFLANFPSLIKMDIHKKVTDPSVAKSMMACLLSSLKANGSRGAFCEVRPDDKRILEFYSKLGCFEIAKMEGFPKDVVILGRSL
Experimental: Experimental Procedure for Kinetic Analyses: Enzymatic reactions were carried out in a reaction containing 50 mM NaH2PO4, 100 mM NaCl and 0.1% BSA (pH 7.0) using 2 mM 4-Methylumbelliferyl N-acetyl-β-D-glucosaminide dihydrate (Sigma M2133) dissolved in ddH2O, as a substrate. The amount of purified human O-GlcNAcase enzyme used in the reaction was 0.7 nM. Test compound of varying concentrations was added to the enzyme prior to initiation of the reaction. The reaction was performed at room temperature in a 96-well plate and was initiated with the addition of substrate. […] The slope of product production was determined for each concentration of compound tested and plotted, using standard curve fitting algorithms for sigmoidal dose response curves. The values for a four parameter logistic curve fit of the data were determined.

| Papp at 3 h, 1 μM [1] [×10⁻⁶ cm/s] | EC50 (O-GlcNAcase) [nM] | Ki (human O-GlcNAcase) [nM] | SMILES |
| --- | --- | --- | --- |
| 6.5 | – | – | CNC1=N[C@@H]2[C@@H](O)[C@H](O)[C@@H](CF)C[C@@H]2O1 [Example 2, (3aR,4R,5R,6S,7aS)-6-(fluoromethyl)-2-(methylamino)-3a,4,5,6,7,7a-hexahydrobenzo[d]oxazole-4,5-diol] |
| 5.1 | 5.2 | 1.1 | O[C@@H]1[C@@H](CF)C[C@@H]2OC(N3CCC3)=N[C@@H]2[C@H]1O [Example 4, (3aR,4R,5R,6S,7aS)-2-(azetidin-1-yl)-6-(fluoromethyl)-3a,4,5,6,7,7a-hexahydrobenzo[d]oxazole-4,5-diol] |
| 2.8 | 5.1 | 0.7 | O[C@H]1[C@H](O)[C@@H](C(F)F)C[C@@H]2OC(N3CCC3)=N[C@H]12 [Example 6, (3aR,4R,5R,6S,7aS)-2-(azetidin-1-yl)-6-(difluoromethyl)-3a,4,5,6,7,7a-hexahydrobenzo[d]oxazole-4,5-diol] |
| 2.7 | 4.7 | 1.4 | CNC1=N[C@@H]2[C@@H](O)[C@H](O)[C@@H](C(F)F)C[C@@H]2O1 [Example 8, (3aR,4R,5R,6S,7aS)-6-(difluoromethyl)-2-(methylamino)-3a,4,5,6,7,7a-hexahydrobenzo[d]oxazole-4,5-diol] |
| – | – | 7 | OC[C@H]1C[C@@H]2OC(N3CCC3)=N[C@@H]2[C@H](F)[C@@H]1O [Example 10, (3aS,4S,5R,6R,7aS)-2-(azetidin-1-yl)-4-fluoro-6-(hydroxymethyl)-3a,4,5,6,7,7a-hexahydrobenzo[d]oxazol-5-ol] |
| 2.2 | – | 8.6 | CNC1=N[C@@H]2[C@H](F)[C@H](O)[C@@H](CO)C[C@@H]2O1 [Example 12, (3aS,4S,5R,6R,7aS)-4-fluoro-6-(hydroxymethyl)-2-(methylamino)-3a,4,5,6,7,7a-hexahydrobenzo[d]oxazol-5-ol] |
| 6.5 | – | 20.5 | O[C@H]1[C@@H](F)[C@H]2N=C(N3CCC3)O[C@H]2C[C@@H]1C(F)F [Example 15, (3aS,4S,5R,6S,7aS)-2-(azetidin-1-yl)-6-(difluoromethyl)-4-fluoro-3a,4,5,6,7,7a-hexahydrobenzo[d]oxazol-5-ol] |
